Eight compounds from US12648919B2, “Anticoccidial composition comprising coumaric acid and use thereof” (CJ CHEILJEDANG CORPORATION, priority 2021, dated 2026) can be followed below.

For one test, the system named is Eimeria acervulina. Description: Cell invasion inhibition of Eimeria acervulina protozoa in MDBK cells (PCR, ACE gene). The format is cell-based. Particulars: 40° C., 24 hours, p-coumaric acid, gallic acid, salinomycin 10 ppm, diclazuril 1 ppm. As for the experimental part: (§1) A certain amount of oocysts of each of Eimeria tenella and Eimeria acervulina was put in a tube containing glass beads and pulverized, and then to remove the crushed oocyst cell wall and other debris, internal sporocysts were purified using the percoll density gradient, and washed with PBS solution. A reagent comprising sodium taurocholic acid (Sigma aldrich, USA) and trypsin (Gibco, USA), respectively, was treated to sporocysts of Eimeria tenella, Eimeria acervulina and Eimeria maxima for excystation and they were incubated, and then they were washed with PBS solution once and protozoa were obtained.
(§2) The protozoa of Eimeria tenella and Eimeria acervulina were obtained by the method of Example 3-1 above. Sporozoites of 2×10^5 per well were added to a well in which MDBK cells (purchased from ATCC) spread as a monolayer and each material (p-coumaric acid: sigma, CAS No. 501-98-4, and anticoccidial agents, gallic acid: sigma, CAS No. 149-91-7, salinomycin: CAS No. sigma, 53003-10-4, diclazuril: sigma, CAS No. 101831-37-2, p-coumaric acid, gallic acid and salinomycin were treated by 10 ppm, and diclazuril was treated by 1 ppm) was treated to the cells, and cultured at a temperature of 40° C. for 24 hours. The negative control group is MDBK cells infected by the protozoa, and the positive control group means a group in which gallic acid, salinomycin or diclazuril solution was incubated with the protozoa. […] After removing the cells and protozoa inside the cells through pipetting, DNA was extracted from the cells, and PCR was performed using E. tenella ITS-1 (Internal transcribed spacer-1) gene or E. acervulina ACE gene-specific primers. The sequences of the used primers were described in Table 5 below.
(§3) Ct values before/after washing for each material were compared and corrected with the ΔCt value of the negative control group to calculate the fold change (2^−ΔCt) at each time point compared to the control group, and the invasion inhibition rate (%) of the protozoa by material treatment was calculated, and the result was shown in Table 6 and Table 7.

The subject of test [1] is Eimeria tenella. Description: Cell invasion inhibition of Eimeria tenella protozoa in MDBK cells (PCR, ITS-1 gene). Format: cell-based. Particulars: for inhibition at 10 ppm: read-out: Invasion inhibition %. As to the method: as §1, §2, §3
By the similar method to Example 3-2 above, 0.1% DMSO, p-coumaric acid (sigma, CAS No. 501-98-4), m-coumaric acid (sigma, 14755-02-3), and o-coumaric acid (sigma, 614-60-8) were treated at a concentration of 10 ppm, respectively, and the cell invasion inhibition rate against the Eimeria tenella protozoan was measured, and the result was shown in Table 9.

In test [2] the test system is Eimeria tenella. Description: Intracellular propagation inhibition of Eimeria tenella protozoa in MDBK cells (PCR, ITS-1 gene). Format: cell-based. As to the method:
as §1
The protozoa of Eimeria tenella were obtained by the method of Example 3-1 above. […] Each material (p-coumaric acid, and anticoccidial agents, gallic acid, salinomycin: 10 ppm and diclazuril: 1 ppm) to the cells, and further cultured at a temperature of 40° C. for 24 hours.
The negative control group is MDBK cells infected by the protozoa, and the positive control group means a group in which salinomycin, gallic acid, or diclazuril solution was incubated with the protozoa. After removing the cells and protozoa inside the cells through pipetting, DNA was extracted from the cells using DNA extract kit (iNtRON Biotechnology), and PCR was performed using E. tenella ITS-1 (Internal transcribed spacer-1) gene-specific primers. The sequences of the used primers were described in Table 5 above. Ct values before/after washing for each material were compared and corrected with the ΔCt value of the negative control group to calculate the fold change (2^−ΔCt) at each time point compared to the control group, and the invasion inhibition rate (%) of the protozoa by material treatment was calculated, and the result was shown in Table 6 above.

Test [3] concerns Eimeria tenella. Nature of the test: In vivo anticoccidial efficacy in broilers challenge-inoculated with Eimeria tenella oocysts (anticoccidial index). Details: species or system Ross broilers. The note with it: in feed: salinomycin 60 ppm, VantiPEARL 125 ppm, p-coumaric acid 125 ppm; for Oocyst excretion amount: feces of 6-9th day of challenge inoculation, McMaster chamber; for ADG after challenge inoculation: before challenge to 7th day after challenge, 10,000 oocysts oral/broiler; for Oocyst index: index 0/5/10/20/40 from oocyst excretion % compared to infected negative control group; for Appendix lesion index: lesion score x 10; for ACI (anticoccidial index): out of 200 points, Equation 2; for Appendix lesion score: scale 0-4, 9th day after challenge inoculation; for Survival rate: up to the 8th day after challenge inoculation. As to the method: An in vivo efficacy evaluation test was performed in an exclusive broiler animal experiment facility in U.S. One-day-old female Ross broilers were individually weighed and randomly divided into groups to use in an experiment.
For the feed, Korea Feed A1-choi product was used, and each material (salinomycin (Cheil Bio Cheilsalino-60 product), VantiPEAL (Kemin, Cozante, key substance: Gallic acid), p-coumaric acid (CAS No. 501-98-4; sigma)) was added to the feed, respectively, at a concentration described in Table 3 below to be self-mixed. Antibiotics and supplements were not used in general feed and mixed feed, and no anticoccidial agent other than each material was added. Broilers were fed ad libitum throughout the experiment period.
Coccidiosis induction was performed by oral inoculation (challenge inoculation) in an oral tube type of 10,000 oocysts with over 90% mature (sporulation) Eimeria tenella per one individual to 14-day-old broilers.
The feed formulation administered to the control group (negative control group or positive control group) and test group and whether coccidiosis was induced by Eimeria tenella were described in Table 3 below. 6 1-day-old broilers were put in a cage randomly arranged for each test group, and after 14 days of feeding the general feed, the formulated feed prepared above was divided into each control group or test group and ingested.
The anticoccidial efficacy by test group designed in Example 1-2 above was shown as an anticoccidial index (ACI), and the anticoccidial index was calculated by Equation 2 below. The ACI score is out of 200 points, and the higher the ACI score, the more excellent the anticoccidial ability, and when it is 120 points or more to less than 140 points, it is determined that it is effective as an anticoccidial material, and when it is 140 points or more to less than 160 points, it is determined that it is excellent as an anticoccidial material, and when it is 160 points or more, it is determined that the anticoccidial effect is very excellent. (Luis Miguel De Pablos et al., Anticoccidial activity of maslinic acid against infection with Eimeria tenella in chickens, Parasitol Res, 2010) Anticoccidial index (ACI)=(survival rate after challenge inoculation (%))+(daily weight gain compared to negative control group (RWG, %))−(lesion score×10)−(fecal oocyst excretion amount index) (Equation 2)
1) Survival rate: the number of dead individuals was recorded daily, and post mortem autopsy was performed to determine a cause of mortality, and the number of individuals who died due to causes other than coccidiosis was excluded. The survival rate (%) up to the 8th day after challenge inoculation was used for anticoccidial index calculation.
2) Daily weight gain: body weight was measured for each cage before challenge inoculation with a protozoan into an individual and at the 7th day after challenge inoculation, and the difference was divided by the number of days to calculate the daily weight gain (ADG, g/d). ‘Daily weight gain compared to the negative control group (RWG, %)’ which was calculated by dividing the daily weight gain (ADG, average daily gain: g/d) of each experimental group by the weight gain (ADG, g/d) of the non-infected negative control group and multiplying by 100 was used for anticoccidial index calculation.
3) Lesion scoring: On the 9th day after challenge inoculation, an autopsy was conducted for 4 broilers per cage, and the intestines were incised and opened. Scoring was performed for each coccidial lesion in the appendix region of the broilers. The lesion scoring method was performed by referring to Johnson J K & Reid W M (1970) document (Joyce Johnson, W. Malcolm Reid, Anticoccidial drugs: Lesion scoring techniques in battery and floor-pen experiments with chickens, Experimental parasitology, 1970). […]

Test [4] deals with Eimeria tenella protozoa (sporozoites). Description: Direct killing effect against Eimeria tenella protozoa (sporozoites), microscopic count. The note with it: 10 ppm; death rate compared to PBS-treated negative control group. As to the method:
A certain amount of oocysts of the protozoa was put in a tube containing glass beads and pulverized, and then to remove the crushed oocyst cell wall and other debris, internal sporocysts were purified using the percoll density gradient, and washed with PBS solution. A reagent comprising sodium taurocholic acid (Sigma aldrich, USA) and trypsin (Gibco, USA), respectively, was treated to sporocysts of Eimeria tenella for excystation and they were incubated, and then they were washed with PBS solution once and protozoa were obtained.
After reacting 0.1% DMSO, m-coumaric acid (sigma, 14755-02-3), Caffeic acid (sigma, 331-39-5) and Ferulic acid (sigma, 1135-24-6) with the Eimeria tenella protozoa at a concentration of 10 ppm, respectively, only alive protozoa (sporozoites) were counted through microscopic observation. Then, the death rate (%) of the protozoa when each material was treated compared to the PBS-treated negative control group was measured, and the result was shown in Table 8 below.

Setting [5] is: Eimeria tenella, Example 4-2, MDBK cells, 10 ppm.
Where [6] appears, read: Example 3-2, MDBK cells, 40° C., 24 hours, p-coumaric acid, gallic acid, salinomycin 10 ppm, diclazuril 1 ppm.
Where [7] appears, read: MDBK cells, material added after 24 h invasion and washing, further 24 hours at 40° C., p-coumaric acid, gallic acid, salinomycin 10 ppm, diclazuril 1 ppm.

SMILES strings stand for the structures.

For orientation: inhibition means the drop in the measured response relative to a control, in per cent. `O=C(O)/C=C/c1ccc(O)cc1` [p-coumaric acid] gave an Invasion inhibition % with Eimeria acervulina of 82.6%. Further, in the test with Eimeria tenella [1] (setting [5]), the inhibition at 10 ppm was found to be 7.98%. The Invasion inhibition % with Eimeria tenella [1] (setting [6]) was 54.3%. In the test with Eimeria tenella [2] (setting [7]), this compound yielded a Propagation inhibition % of 43.9%. Also, in the test with Eimeria tenella [3], the Oocyst excretion amount is given as 5.7 × 10^7 Oocyst/chicken, the “RWG (daily weight gain compared to the non-infected negative control group)” value came to 94.5%, the “ADG after challenge inoculation” value is 52 g/day and the Oocyst index amounted to 10. In the test on Eimeria tenella [3], the Appendix lesion index stood at 25, the “ACI (anticoccidial index)” value turned out to be 160 points, the Appendix lesion score stood at 2.5 and the Survival rate is 100%.

For the compound `O=C(O)/C=C/c1cccc(O)c1` [m-coumaric acid], the inhibition at 10 ppm with Eimeria tenella [1] (setting [5]) was 29.8%. Besides, in test [4], the Killed sporozoites % came out at 10.7%.

Take `COc1cc(/C=C/C(=O)O)ccc1O` [Ferulic acid]: the Killed sporozoites % in test [4] is 0%.

Regarding `N#CC(c1ccc(Cl)cc1)c1c(Cl)cc(-n2ncc(=O)[nH]c2=O)cc1Cl` (stereo not shown) [Diclazuril, diclazuril], the inhibition at 1 ppm in the test with Eimeria acervulina (Eimeria acervulina) was found to be 42.7%; in the test on Eimeria tenella [1] (Eimeria tenella, Example 3-2, MDBK cells, 40° C., 24 hours, p-coumaric acid, gallic acid, salinomycin 10 ppm, diclazuril 1 ppm) it was 6.3%; with Eimeria tenella [2] (Eimeria tenella, MDBK cells, material added after 24 h invasion and washing, further 24 hours at 40° C., p-coumaric acid, gallic acid, salinomycin 10 ppm, diclazuril 1 ppm) it was 52.9%.

`CC[C@@H](C(=O)[C@@H](C)[C@@H](O)[C@H](C)[C@@H]1O[C@@H]([C@@H](CC)C(=O)O)CC[C@@H]1C)[C@H]1O[C@]2(C=C[C@@H](O)[C@]3(CC[C@@](C)([C@H]4CC[C@](O)(CC)[C@H](C)O4)O3)O2)[C@H](C)C[C@@H]1C` [Salinomycin, salinomycin] displayed an inhibition at 10 ppm in the test on Eimeria acervulina (Eimeria acervulina) of 59.4%. In addition, the inhibition at 10 ppm in the test on Eimeria tenella [1] (Eimeria tenella, MDBK, 24 h) stood at 56.4%. Moreover, in the test with Eimeria tenella [2] (Eimeria tenella, MDBK, 24 h, read-out: Propagation inhibition %), the inhibition at 10 ppm came to 34.8%. Moreover, in the test on Eimeria tenella [3], the Oocyst excretion amount is 6.3 × 10^7 Oocyst/chicken, the “RWG (daily weight gain compared to the non-infected negative control group)” value turned out to be 81.8%, the “ADG after challenge inoculation” value is 45 g/day and the Oocyst index was determined as 10. Also, in the test on Eimeria tenella [3], the Appendix lesion index is 22.7, the “ACI (anticoccidial index)” value amounted to 149 points, the Appendix lesion score stood at 2.27 and the Survival rate was found to be 100%.

Regarding `O=C(O)/C=C/c1ccccc1O` [o-coumaric acid], in the test with Eimeria tenella [1] (setting [5]), the inhibition at 10 ppm amounted to 39.6%.

Consider `O=C(O)c1cc(O)c(O)c(O)c1` [Gallic acid, gallic acid], for which the Invasion inhibition % came to 60.6% in the test with Eimeria acervulina and 90.1% with Eimeria tenella [1] (setting [6]). Further, the Propagation inhibition % in the test on Eimeria tenella [2] (setting [7]) was found to be 0.0%.

On to `O=C(O)/C=C/c1ccc(O)c(O)c1` [Caffeic acid], for which the Killed sporozoites % in test [4] stood at 0%.
